Laboratory results: PubChem BioAssay AID330 (DTP/NCI, 2004)
Where “and” joins values, the source holds several entries; their conditions need not be identical. Equal values may be shown once. Toxic doses and inconclusive results are not listed.

Test system: P388 leukemia ip, CD2F1 mice, survival T/C
Assay: NCI In Vivo Anticancer Drug Screen. Data for tumor model P388 Leukemia (intraperitoneal) in CD2F1 (CDF1) mice
Details: endpoint: median survival time, higher = longer survival
Outline: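 Mice carrying the transplanted tumor received test compound or vehicle. Survival was recorded in each group, and the value is the treated-group measurement divided by that of the vehicle-treated control group.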

[1] = dose: 12.5 mg/kg/injection, schedule: Q01DX009 (ip), vehicle: saline
[2] = dose: 50.0 mg/kg/injection, schedule: Q01DX009 (ip), vehicle: saline
[3] = dose: 50.0 mg/kg/injection, schedule: Q01DX005 (ip), vehicle: saline with Tween-80
[4] = dose: 100.0 mg/kg/injection, schedule: Q01DX005 (ip), vehicle: saline with Tween-80
[5] = dose: 200.0 mg/kg/injection, schedule: Q01DX005 (ip), vehicle: saline with Tween-80
[6] = dose: 60.0 mg/kg/injection, schedule: Q01DX005 (ip), vehicle: saline with Tween-80
[7] = dose: 120.0 mg/kg/injection, schedule: Q01DX005 (ip), vehicle: saline with Tween-80
[8] = dose: 100.0 mg/kg/injection, schedule: Q01DX009 (ip), vehicle: saline
[9] = dose: 200.0 mg/kg/injection, schedule: Q01DX009 (ip), vehicle: saline
[10] = dose: 12.5 mg/kg/injection, schedule: Q01DX009 (ip), vehicle: saline with Tween-80
[11] = dose: 25.0 mg/kg/injection, schedule: Q01DX009 (ip), vehicle: saline with Tween-80
[12] = dose: 100.0 mg/kg/injection, schedule: Q04DX002 (ip), vehicle: saline with Tween-80
[13] = dose: 50.0 mg/kg/injection, schedule: Q01DX009 (ip), vehicle: saline with Tween-80
[14] = dose: 100.0 mg/kg/injection, schedule: Q01DX009 (ip), vehicle: saline with Tween-80
[15] = dose: 200.0 mg/kg/injection, schedule: Q01DX009 (ip), vehicle: saline with Tween-80
[16] = dose: 50.0 mg/kg/injection, schedule: Q01DX009 (ip), vehicle: Klucel (hydroxypropylcellulose) (HPC)
[17] = dose: 100.0 mg/kg/injection, schedule: Q01DX009 (ip), vehicle: Klucel (hydroxypropylcellulose) (HPC)
[18] = dose: 200.0 mg/kg/injection, schedule: Q01DX009 (ip), vehicle: Klucel (hydroxypropylcellulose) (HPC)

Compound: COC(=O)NC(=O)CCC(=O)O
- T/C [1]: 104 % of control
- T/C (dose: 25.0 mg/kg/injection, schedule: Q01DX009 (ip), vehicle: saline): 97 % of control
- T/C [2]: 100 % of control and 103 % of control

Compound: N#CSCc1ccccc1
- T/C (dose: 3.13 mg/kg/injection, schedule: Q01DX009 (ip), vehicle: saline): 100 % of control
- T/C (dose: 6.25 mg/kg/injection, schedule: Q01DX009 (ip), vehicle: saline): 105 % of control
- T/C [1]: 104 % of control

Compound: Cc1cc(C)nc(NS(=O)(=O)c2ccc(Nc3c4ccc(Cl)cc4nc4ncccc34)cc2)n1
- T/C [3]: 110 % of control
- T/C [4]: 106 % of control
- T/C [5]: 116 % of control

Compound: COc1cccc2c1C(=O)c1c(O)c3c(c(O)c1C2=O)CC(O)(C(C)=O)CC3OC1CC(N)C(C(C)O)O1 (stereo not given)
- T/C (dose: 2.25 mg/kg/injection, schedule: Q04DX003 (ip), vehicle: distilled water + Tween-80): 100 % of control
- T/C (dose: 4.5 mg/kg/injection, schedule: Q04DX003 (ip), vehicle: distilled water + Tween-80): 99 % of control
- T/C (dose: 9.0 mg/kg/injection, schedule: Q04DX003 (ip), vehicle: distilled water + Tween-80): 110 % of control
- T/C (dose: 18.0 mg/kg/injection, schedule: Q04DX003 (ip), vehicle: distilled water + Tween-80): 101 % of control
- T/C (dose: 36.0 mg/kg/injection, schedule: Q04DX003 (ip), vehicle: distilled water + Tween-80): 110 % of control

Compound: COc1cc2c(cc1OC)C(C)=NCC2
- T/C (dose: 25.0 mg/kg/injection, schedule: Q01DX001 (ip), vehicle: saline): 104 % of control
- T/C (dose: 50.0 mg/kg/injection, schedule: Q01DX001 (ip), vehicle: saline): 95 % of control
- T/C (dose: 100.0 mg/kg/injection, schedule: Q01DX001 (ip), vehicle: saline): 94 % of control
- T/C (dose: 200.0 mg/kg/injection, schedule: Q01DX001 (ip), vehicle: saline): 98 % of control

Compound: CC1(C)CN(C2CCCCC2)CN2C1OCC2(C)C (stereo not given)
- T/C (dose: 80.0 mg/kg/injection, schedule: Q01DX009 (ip), vehicle: saline with Tween-80): 117 % of control

Compound: CC(=O)O[C@@H]1C[C@@]2(C)C(C)(C)C(=O)C=C[C@]2(C)[C@H]2CC[C@]3(C)C(=CC(=O)C3c3ccoc3)[C@]12C (stereo not given in full)
- T/C (dose: 8.5 mg/kg/injection, schedule: Q01DX005 (ip), vehicle: Klucel (hydroxypropylcellulose) (HPC)): 104 % of control
- T/C (dose: 17.0 mg/kg/injection, schedule: Q01DX005 (ip), vehicle: Klucel (hydroxypropylcellulose) (HPC)): 96 % of control
- T/C (dose: 34.0 mg/kg/injection, schedule: Q01DX005 (ip), vehicle: Klucel (hydroxypropylcellulose) (HPC)): 98 % of control
- T/C (dose: 68.0 mg/kg/injection, schedule: Q01DX005 (ip), vehicle: Klucel (hydroxypropylcellulose) (HPC)): 92 % of control
- T/C (dose: 136.0 mg/kg/injection, schedule: Q01DX005 (ip), vehicle: Klucel (hydroxypropylcellulose) (HPC)): 92 % of control

Compound: COC(=O)c1ccccc1SSCCN
- T/C (dose: 12.5 mg/kg/injection, schedule: Q01DX005 (ip), vehicle: saline with Tween-80): 100 % of control
- T/C (dose: 25.0 mg/kg/injection, schedule: Q01DX005 (ip), vehicle: saline with Tween-80): 106 % of control
- T/C [3]: 101 % of control and 109 % of control

Compound: O=C(Nc1ccc(Cl)cc1)Nc1nnc2ncc3c(n12)CCCCCCCCCC3
- T/C [6]: 102 % of control
- T/C [7]: 87 % of control

Compound: CCOC(=O)C(C(=O)OCC)C(C)(C)C
- T/C [2]: 100 % of control
- T/C [8]: 102 % of control
- T/C [9]: 109 % of control
- T/C (dose: 400.0 mg/kg/injection, schedule: Q01DX009 (ip), vehicle: saline): 109 % of control

Compound: CC(C)(C)B1N(c2ccccc2)N=NN1C(C)(C)C
- T/C (dose: 60.0 mg/kg/injection, schedule: Q01DX005 (ip), vehicle: saline): 100 % of control
- T/C (dose: 120.0 mg/kg/injection, schedule: Q01DX005 (ip), vehicle: saline): 99 % of control and 88 % of control
- T/C (dose: 240.0 mg/kg/injection, schedule: Q01DX005 (ip), vehicle: saline): 96 % of control and 98 % of control

Compound: O=C([Se][Se]C(=O)c1ccccc1)c1ccccc1
- T/C (dose: 6.25 mg/kg/injection, schedule: Q01DX009 (ip), vehicle: saline with Tween-80): 101 % of control
- T/C [10]: 107 % of control
- T/C [11]: 107 % of control

Compound: COc1cc2cnc(-c3ccncc3)cc2cc1OC
- T/C (dose: 100.0 mg/kg/injection, schedule: Q04DX003 (ip), vehicle: saline): 95 % of control
- T/C (dose: 200.0 mg/kg/injection, schedule: Q04DX003 (ip), vehicle: saline): 108 % of control

Compound: CCOc1ccc(N2CC(=O)N3CCCC(C)N3C(=O)C2)cc1 (stereo not given)
- T/C [3]: 101 % of control
- T/C [4]: 101 % of control
- T/C [5]: 103 % of control

Compound: COc1cccc(N=Nc2c(-c3ccccc3)nn(C(N)=S)c2-c2ccccc2)c1
- T/C [12]: 98 % of control
- T/C (dose: 200.0 mg/kg/injection, schedule: Q04DX002 (ip), vehicle: saline with Tween-80): 95 % of control
- T/C (dose: 400.0 mg/kg/injection, schedule: Q04DX002 (ip), vehicle: saline with Tween-80): 88 % of control

Compound: C=C1C(=O)O[C@@H]2C3=C(C)C(=O)CC[C@]3(C)CC[C@@H]12
- T/C [12]: 108 % of control

Compound: CC1(C)OC2(C)CCC1C1C2N1C(=O)NCCCl (stereo not given)
- T/C (dose: 50.0 mg/kg/injection, schedule: Q01DX005 (ip), vehicle: saline): 108 % of control
- T/C (dose: 100.0 mg/kg/injection, schedule: Q01DX005 (ip), vehicle: saline): 100 % of control
- T/C (dose: 200.0 mg/kg/injection, schedule: Q01DX005 (ip), vehicle: saline): 89 % of control

Compound: CC1=CCC2C(=O)N(c3cc(C)on3)C(=O)C2C1 (stereo not given)
- T/C [6]: 97 % of control
- T/C [7]: 100 % of control
- T/C (dose: 240.0 mg/kg/injection, schedule: Q01DX005 (ip), vehicle: saline with Tween-80): 90 % of control

Compound: Cc1cc(Cl)ccc1N=C(N)N
- T/C [10]: 100 % of control
- T/C [11]: 101 % of control
- T/C [13]: 99 % of control and 107 % of control

Compound: O=C(NNC(=S)Nc1ccccc1)c1ccncc1
- T/C [13]: 107 % of control
- T/C [14]: 107 % of control
- T/C [15]: 107 % of control

Compound: Cc1cc2nc(Nc3nc(C)c(C)c(=O)[nH]3)[nH]c2cc1C
- T/C [2]: 108 % of control
- T/C [8]: 102 % of control
- T/C [9]: 90 % of control

Compound: CCCC(OC)=C(C(=O)OCC)C(=O)OCC
- T/C [2]: 93 % of control
- T/C [8]: 94 % of control
- T/C [9]: 89 % of control

Compound: CC(C)(C)N=C(CCC(C#N)(C#N)CCC(=NC(C)(C)C)Nc1c(Cl)cccc1Cl)Nc1c(Cl)cccc1Cl
- T/C [13]: 99 % of control
- T/C [14]: 92 % of control
- T/C [15]: 92 % of control

Compound: COC(=O)Nc1csc(NC(=O)OC)n1
- T/C [3]: 96 % of control
- T/C [4]: 95 % of control
- T/C [5]: 87 % of control

Compound: FC(F)(F)C1=NNC(c2ccc3ccccc3c2)=NN1
- T/C [16]: 95 % of control
- T/C [17]: 90 % of control
- T/C [18]: 92 % of control

Compound: COc1cc2cc(c1Cl)N(C)C(=O)CC(OC(=O)C(C)NC(=O)C(C)C)C1(C)OC1C(C)C1CC(O)(NC(=O)O1)C(OC)/C=C/C=C(C)C2OC (stereo not given)
- T/C (dose: 32.0 micrograms/kg/injection, schedule: Q01DX009 (ip), vehicle: distilled water + alcohol): 159 % of control

Compound: CC(=O)NCCc1ccc(OC(C)=O)c(OC(C)=O)c1
- T/C [3]: 99 % of control
- T/C [4]: 103 % of control
- T/C [5]: 107 % of control

Compound: COc1cccc2c1C(=O)c1c(O)c3c(c(O)c1C2=O)CC(O)(C(=O)COC(C)=O)CC3OC1CC(NC(C)=O)C(O)C(C)O1 (stereo not given)
- T/C (dose: 0.78 mg/kg/injection, schedule: Q01DX009 (ip), vehicle: other): 122 % of control
- T/C (dose: 3.13 mg/kg/injection, schedule: Q01DX009 (ip), vehicle: other): 120 % of control

Compound: COC(=O)n1c(=O)oc2c(Br)cc(Br)cc21
- T/C (dose: 50.0 mg/kg/injection, schedule: Q01DX005 (ip), vehicle: Klucel (hydroxypropylcellulose) (HPC)): 103 % of control
- T/C (dose: 100.0 mg/kg/injection, schedule: Q01DX005 (ip), vehicle: Klucel (hydroxypropylcellulose) (HPC)): 106 % of control
- T/C (dose: 200.0 mg/kg/injection, schedule: Q01DX005 (ip), vehicle: Klucel (hydroxypropylcellulose) (HPC)): 103 % of control

Compound: CCOc1ccc2c(N=[N+]=[N-])cc(C)nc2c1
- T/C (dose: 30.0 mg/kg/injection, schedule: Q01DX005 (ip), vehicle: saline with Tween-80): 94 % of control
- T/C [6]: 103 % of control and 91 % of control
- T/C [7]: 92 % of control

Compound: O=C1CC2(CCCC2)C(=O)N1c1ccc(O)c(CN2CCCCC2)c1
- T/C [16]: 99 % of control
- T/C [17]: 104 % of control
- T/C [18]: 98 % of control
